The subject of assay [1] is Mycobacterium tuberculosis. The experiment in a line: Antitubercular activity against Mycobacterium tuberculosis H37Rv assessed as growth inhibition after 30 days by agar microdilution method. In kind it is functional.
For assay [2], the system named is Escherichia coli. The experiment in a line: In vivo antibacterial activity against Escherichia coli GR501 harboring lig251 temperature-sensitive mutant gene transformed with control plasmid pTrc99A assessed as growth inhibition after 20 hrs by microdilution assay. The conditions noted are these: GR501, 20 h. In kind it is functional.
Assay [3] deals with Escherichia coli. Description: In vivo antibacterial activity against Escherichia coli GR501 harboring temperature-sensitive lig251 mutant gene transformed with plasmid encoding T4 DNA ligase assessed as growth inhibition after 20 hrs by microdilution assay. The conditions noted are these: GR501, 20 h. In kind it is functional.
Assay [4] is described as follows: Competitive inhibition of nick joining activity of Mycobacterium tuberculosis full length NAD+-dependent DNA ligase using [gamma32P]ATP-labeled nicked 40 bp DNA as substrate by double reciprocal plot assay in presence of rising concentrations of NAD+.
Assay [5] relates to Calf thymus DNA. The experiment in a line: Binding affinity to calf thymus DNA up to 250 uM by ethidium bromide displacement assay. Conditions: Bos taurus. In kind it is nucleic-acid assay.
Assay [6] can be described thus: Binding affinity to plasmid DNA (unknown origin) by gel electrophoresis mobility shift assay.
Assay [7] concerns Salmonella typhimurium. The experiment in a line: In vivo antibacterial activity against wild type Salmonella typhimurium LT2 assessed as growth inhibition after 20 hrs by microdilution assay. In kind it is functional, Salmonella enterica subsp. enterica serovar Typhimurium. Conditions: Salmonella enterica, LT2, 20 h.
Assay [8] in a line: Inhibition of nick joining activity of Mycobacterium tuberculosis full length NAD+-dependent DNA ligase using [gamma32P]ATP-labeled nicked 40 bp DNA as substrate.
The target of assay [9] is DNA ligase 1 (Homo sapiens, UniProt P18858). Description: Inhibition of nick joining activity of human DNA ligase 1 using [gamma32P]ATP-labeled nicked 40 bp DNA as substrate.
Assay [10] can be described thus: Ratio of IC50 for ATP-dependent bacteriophage T4 DNA ligase to IC50 for Mycobacterium tuberculosis full length NAD+-dependent DNA ligase.
The target of assay [11] is T1, DNA ligase (Enterobacteria phage T4, UniProt P00970).
T1 sequence (P00970 whole entry): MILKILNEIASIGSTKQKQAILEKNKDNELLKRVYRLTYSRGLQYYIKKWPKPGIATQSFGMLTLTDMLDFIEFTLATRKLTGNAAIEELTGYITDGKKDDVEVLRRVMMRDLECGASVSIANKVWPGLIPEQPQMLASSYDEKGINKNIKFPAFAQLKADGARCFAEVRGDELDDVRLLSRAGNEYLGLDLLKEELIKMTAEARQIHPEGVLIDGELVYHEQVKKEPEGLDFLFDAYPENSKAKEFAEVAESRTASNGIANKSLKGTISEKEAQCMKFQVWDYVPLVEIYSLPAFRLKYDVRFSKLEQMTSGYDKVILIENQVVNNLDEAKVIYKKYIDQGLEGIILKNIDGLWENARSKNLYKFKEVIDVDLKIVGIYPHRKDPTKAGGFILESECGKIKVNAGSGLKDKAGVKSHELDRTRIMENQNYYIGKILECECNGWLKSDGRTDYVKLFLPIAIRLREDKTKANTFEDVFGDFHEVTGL
Description: Inhibition of nick joining activity of ATP-dependent bacteriophage T4 DNA ligase using [gamma32P]ATP-labeled nicked 40 bp DNA as substrate. Set-up: species or system Tequatrovirus T4.

Assay [12] is described as follows: Ratio of IC50 for human DNA ligase 1 to IC50 for Mycobacterium tuberculosis full length NAD+-dependent DNA ligase.
Assay [13] deals with Salmonella typhimurium. Description: In vivo antibacterial activity against DNA ligase deficient Salmonella typhimurium variant TT15151 expressing […] T4 DNA ligase gene assessed as growth inhibition after 20 hrs by microdilution assay. In kind it is functional, Salmonella enterica subsp. enterica serovar Typhimurium. Conditions: Salmonella enterica, TT15151, 20 h.

This is an account of results in ChEMBL document CHEMBL3217431, “Synthesis, in silico screening and bioevaluation of dispiro-cycloalkanones as antitubercular and mycobacterial NAD+-dependent DNA ligase inhibitors” (Medchemcomm, 2011).

Values after ≈ are worked out from the molar mass of the structure shown. Active and inactive are the calls of the source. No cut-off for these calls is given here. Bounds are passed on as bounds.

DNA ligase 1, sequence (P18858 whole entry): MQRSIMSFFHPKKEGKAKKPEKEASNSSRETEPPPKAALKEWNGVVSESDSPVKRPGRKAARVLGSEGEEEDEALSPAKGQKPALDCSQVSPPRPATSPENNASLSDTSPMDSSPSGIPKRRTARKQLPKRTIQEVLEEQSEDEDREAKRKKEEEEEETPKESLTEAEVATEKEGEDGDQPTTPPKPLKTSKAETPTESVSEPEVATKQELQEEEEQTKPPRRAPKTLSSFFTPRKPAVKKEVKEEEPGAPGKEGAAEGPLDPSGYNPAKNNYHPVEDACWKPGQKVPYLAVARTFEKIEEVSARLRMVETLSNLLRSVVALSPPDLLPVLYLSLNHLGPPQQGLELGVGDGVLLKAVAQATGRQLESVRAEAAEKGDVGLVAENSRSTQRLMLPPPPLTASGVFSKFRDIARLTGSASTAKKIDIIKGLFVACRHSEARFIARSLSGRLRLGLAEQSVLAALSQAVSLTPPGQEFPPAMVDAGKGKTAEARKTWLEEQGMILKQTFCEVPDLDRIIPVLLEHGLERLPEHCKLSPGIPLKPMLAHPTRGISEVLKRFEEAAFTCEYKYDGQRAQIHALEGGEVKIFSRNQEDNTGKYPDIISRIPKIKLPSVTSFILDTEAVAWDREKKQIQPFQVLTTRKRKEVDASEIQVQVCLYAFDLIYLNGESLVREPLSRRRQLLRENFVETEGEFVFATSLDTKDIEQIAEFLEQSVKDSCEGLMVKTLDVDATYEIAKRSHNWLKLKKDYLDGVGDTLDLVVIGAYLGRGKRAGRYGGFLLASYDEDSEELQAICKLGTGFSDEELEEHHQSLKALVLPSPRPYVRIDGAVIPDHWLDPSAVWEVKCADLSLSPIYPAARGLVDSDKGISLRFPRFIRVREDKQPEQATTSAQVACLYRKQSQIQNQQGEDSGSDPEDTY

Take `COc1cc(C2CC23CCCC2(CC2c2cc(OC)c(OC)c(OC)c2)C3=O)cc(OC)c1OC` (centres undefined): the MIC90 in [1] was determined as 25.9 µM (≈ 12.5 µg/mL).
For `COc1cc(C2CC23CCCCC2(CC2c2cc(OC)c(OC)c(OC)c2)C3=O)cc(OC)c1OC` (centres undefined), the MIC90 in assay [1] was determined as 25.2 µM (≈ 12.5 µg/mL).
Still for that read-out and setting: the value for `COc1ccc(C2CC23CCCCC2(CC2c2ccc(OC)cc2)C3=O)cc1` (centres undefined) was over 30 µM; that for `NNC(=O)c1ccncc1` [ISONIAZID] was 4.7 µM (≈ 0.645 µg/mL).
Consider `O=C1C2(CCC13CC3c1ccc(F)cc1)CC2c1ccc(F)cc1` (centres undefined), for which the MIC90 in assay [1] was over 30 µM.
With `O=C1C2(CCCC13CC3c1ccc(Br)cc1)CC2c1ccc(Br)cc1` (centres undefined), the MIC in [2] amounted to 8.6 µM (≈ 3.96 µg/mL); in assay [3], 65.2 µM (≈ 30 µg/mL); in assay [7], 43.4 µM (≈ 20 µg/mL); in assay [13] it was 76 µM (≈ 35 µg/mL). Also, the Ki in assay [4] came to 5.9 µM. Also, the result in assay [5] and in assay [6] was inactive. Further, in assay [1], the MIC90 is 13.5 µM (≈ 6.21 µg/mL). For the same compound, the IC50 amounted to 7.3 µM in assay [8], 58.6 µM in assay [9] and 70.2 µM in assay [11]. Also, the Ratio IC50 in assay [10] and in [12] was 8 throughout.
Consider `O=C1C2(CCCC13CC3c1ccccc1)CC2c1ccccc1` (centres undefined), for which, in assay [1], the MIC90 is over 30 µM. For the same compound, the concentration for half-maximal inhibition (IC50) in [8] was 180 µM; in assay [9], 130 µM; in [11], 210 µM.
For `CC[C@@H](CO)NCCN[C@@H](CC)CO` [ETHAMBUTOL], in assay [1], the MIC90 was 15.9 µM (≈ 3.25 µg/mL).
Turning to `O=C(C1CC1c1ccc(OCc2ccccc2)cc1)C1CC1c1ccc(OCc2ccccc2)cc1` (centres undefined), in assay [1], the MIC90 came to 26.3 µM (≈ 12.5 µg/mL).
Still for that read-out and setting: then `O=C1C2(CCC13CC3c1ccc(OCc3ccccc3)cc1)CC2c1ccc(OCc2ccccc2)cc1` (centres undefined), with 25 µM (≈ 12.5 µg/mL).
Take `COc1ccc(C2CC23CCC2(CC2c2ccc(OC)c(OC)c2)C3=O)cc1OC` (centres undefined): the MIC90 in [1] is over 30 µM.
As for `O=C1C2(CCC13CC3c1ccc(Br)cc1)CC2c1ccc(Br)cc1` (centres undefined), the MIC90 in assay [1] came out at 28 µM (≈ 12.5 µg/mL).
As to `O=C1C2(CCCC13CC3c1ccc(Cl)cc1)CC2c1ccc(Cl)cc1` (centres undefined), in assay [1], the MIC90 came to 16.8 µM (≈ 6.24 µg/mL). The IC50 in assay [8] was 12 µM; in assay [9], 18.5 µM; in [11], 20.2 µM.
As for `COc1ccc(C2CC23CCCC2(CC2c2ccc(OC)cc2)C3=O)cc1` (centres undefined), the MIC90 in assay [1] was over 30 µM.
On the same count and under the same terms, the value for `COc1ccc(C2CC23CCCCC2(CC2c2ccc(OC)c(OC)c2)C3=O)cc1OC` (centres undefined) was 28.6 µM (≈ 12.5 µg/mL); that for `O=C1C2(CCCC13CC3c1ccc(OCc3ccccc3)cc1)CC2c1ccc(OCc2ccccc2)cc1` (centres undefined) was 24.3 µM (≈ 12.5 µg/mL).
`COc1ccc(C2CC23CCC2(CC2c2ccc(OC)cc2)C3=O)cc1` (centres undefined): the MIC90 in assay [1] was over 30 µM.
Turning to `COc1ccc(C2CC23CCCC2(CC2c2ccc(OC)c(OC)c2)C3=O)cc1OC` (centres undefined), the MIC90 in assay [1] came to 29.6 µM (≈ 12.5 µg/mL).
Same read-out and setting: the value for `O=C1C2(CCCCC13CC3c1ccc(Cl)cc1)CC2c1ccc(Cl)cc1` (centres undefined) was over 30 µM.
Take `O=C1C2(CCCC13CC3c1ccc(F)cc1)CC2c1ccc(F)cc1` (centres undefined): the minimum inhibitory concentration (MIC) in assay [2] was determined as 5.9 µM (≈ 2 µg/mL); in assay [3], 178 µM (≈ 60.1 µg/mL); in assay [7], 29.5 µM (≈ 9.98 µg/mL); in [13], 148 µM (≈ 50 µg/mL). In addition, the result in assay [5] and in assay [6] was inactive. In [1], the MIC90 is over 30 µM. Also, the IC50 in [8] worked out at 8.6 µM; in assay [9], 45.4 µM; in [11], 33.4 µM. In addition, the Ratio IC50 is 4 in assay [10] and 5 in assay [12].
